Values of other authors, collected in patent EP4488277A1, “NOVEL BISPIDINE-BASED METAL CHELATING LIGANDS DISPLAYING GOOD RELAXIVITY” (Université de Strasbourg, priority 2023, dated 2025).

Settings: pH of 7.4, 60 MHz, 25°C

- relaxivity r1: 3.7 mM⁻¹ s⁻¹
Compound: CNC[C@H](O)[C@@H](O)[C@H](O)[C@H](O)CO.O=C([O-])CN1CCN(CC(=O)[O-])CCN(CC(=O)O)CCN(CC(=O)[O-])CC1.[Gd+3] [Dotarem®, gadoterate meglumine]
